Source: ChEMBL document CHEMBL5214970, “Discovery and optimization of orally bioavailable and potent plasma Kallikrein inhibitors bearing a quaternary carbon” (Bioorg Med Chem, 2022)

What was measured:
[1] = target: T1, Plasma kallikrein (Homo sapiens, UniProt P03952); assay: Inhibition of purified human plasma kallikrein using H-D-Pro-Phe-Arg-pNA.2HCl as substrate measured after 3 mins by microplate reader analysis
[2] = target: T1, Plasma kallikrein; assay: Inhibition of endogenous human plasma kallikrein using Z-Phe-Arg-AMC.HCl as substrate measured after 5 mins by microplate reader analysis
[3] = AUC (0 to 24hrs) in Sprague-Dawley rat at 10 mg/kg,po; assay type: ADME, organism-based; parameters: time < 24 hr, dose 10 mg/kg, route po; settings: in vivo; for AUC(0-t) at 24 h: Sprague-Dawley
[4] = Cmax in Sprague-Dawley rat at 10 mg/kg,po; assay type: ADME, organism-based; parameters: dose 10 mg/kg, route po; settings: in vivo
[5] = Cmin in Sprague-Dawley rat at 10 mg/kg,po measured after 24 hrs; assay type: ADME, organism-based; settings: in vivo; for concentration at 24 h: Sprague-Dawley, read-out: Cmin

T1 sequence (P03952 20-390 limits assumed): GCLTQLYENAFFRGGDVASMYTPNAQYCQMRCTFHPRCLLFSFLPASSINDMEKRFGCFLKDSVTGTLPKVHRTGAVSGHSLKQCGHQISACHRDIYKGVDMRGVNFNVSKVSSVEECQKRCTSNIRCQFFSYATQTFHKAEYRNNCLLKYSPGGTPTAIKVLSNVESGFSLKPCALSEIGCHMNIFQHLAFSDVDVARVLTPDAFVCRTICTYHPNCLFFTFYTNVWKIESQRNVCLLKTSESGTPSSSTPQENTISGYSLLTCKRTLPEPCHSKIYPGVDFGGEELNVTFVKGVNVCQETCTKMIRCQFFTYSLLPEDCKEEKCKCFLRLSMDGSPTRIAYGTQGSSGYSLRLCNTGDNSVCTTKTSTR
T1 sequence (P03952 391-638 limits assumed): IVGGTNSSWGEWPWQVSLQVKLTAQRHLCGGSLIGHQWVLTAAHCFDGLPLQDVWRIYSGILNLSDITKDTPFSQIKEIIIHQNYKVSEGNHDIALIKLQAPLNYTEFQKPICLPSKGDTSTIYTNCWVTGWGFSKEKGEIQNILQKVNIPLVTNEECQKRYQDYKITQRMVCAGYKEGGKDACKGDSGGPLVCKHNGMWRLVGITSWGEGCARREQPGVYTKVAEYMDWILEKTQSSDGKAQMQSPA

| SMILES | IC50 [1] [nM] | IC50 [2] [nM] | AUC(0-t) at 24 h [3] [ng·h/mL] | Cmax ([4]; Sprague-Dawley, read-out: Cmax) [ng/mL] | concentration at 24 h [5] [ng/mL] | Cmin ([5]; po, 10 mg/kg, 24 h) [ng/mL] | AUC ([3]; 24 h) [ng·h/mL] | Cmax [4] [ng/mL] |
| --- | --- | --- | --- | --- | --- | --- | --- | --- |
| NCc1cccc(-n2nc(C(F)(F)F)cc2C(=O)Nc2cccc(C(O)(CCC3CC3)c3ccccn3)c2)c1 (stereo unspecified) | 18.5 | 104 | – | – | – | – | – | – |
| NCc1cccc(-n2nc(C(F)(F)F)cc2C(=O)Nc2cccc(C(NCC3CC3)c3ccccc3)c2)c1 (stereo unspecified) | 5.4 | 19.3 | – | – | – | – | – | – |
| NCc1cccc(-n2nc(C(F)(F)F)cc2C(=O)Nc2cccc(C(O)(CCC3CC3)c3cccnc3)c2)c1 (stereo in doubt; 18) | 1.9 | 9 | 128 | 51 | – | – | – | – |
| NCc1cccc(-n2nc(C(F)(F)F)cc2C(=O)Nc2cc(C(N)(CCC3CC3)c3ccncc3)ccc2F)c1 (stereo in doubt; 34) | 118 | 76 | – | – | – | – | – | – |
| N#Cc1cccc(C(N)(CCC2CC2)c2ccc(F)c(NC(=O)c3cc(C(F)(F)F)nn3-c3cccc(CN)c3)c2)c1 (stereo in doubt; 37) | 1.3 | 3.2 | 3330 | 429 | 56.5 | – | – | – |
| NCc1cccc(-n2nc(C(F)(F)F)cc2C(=O)Nc2cc(C(N)(CCC3CC3)c3ccc(C(N)=O)nc3)ccc2F)c1 (single isomer, unassigned; (+)) | 2.3 | 1.7 | 134 | 27 | – | – | – | – |
| Cc1cc(C(N)(CCC2CC2)c2ccc(F)c(NC(=O)c3cc(C(F)(F)F)nn3-c3cccc(CN)c3)c2)ccn1 (stereo in doubt; 36) | 18.4 | – | – | – | – | – | – | – |
| NCc1cccc(-n2nc(C(F)(F)F)cc2C(=O)Nc2cc(C(O)(CCC3CC3)c3cccnc3)ccc2F)c1 (stereo in doubt; 21) | – | – | – | – | – | 9 | 887 | 224 |
| N#Cc1cccc(C(N)(CCC2CC2)c2ccc(F)c(NC(=O)c3cc(C(F)(F)F)nn3-c3cccc(CN)c3)c2)n1 (stereo unspecified) | 2.9 | 12 | 2890 | 676 | 53.3 | – | – | – |
| NCc1cccc(-n2nc(C(F)(F)F)cc2C(=O)Nc2cc(C(N)(CCC3CC3)c3ccncc3)ccc2F)c1 (stereo in doubt; 33) | 1.5 | 3 | 825 | 93 | 22.9 | – | – | – |
| N#Cc1cccc(C(N)(CCC2CC2)c2ccc(F)c(NC(=O)c3cc(C(F)(F)F)nn3-c3cccc(CN)c3)c2)c1 (stereo in doubt; 38) | 234 | 382 | – | – | – | – | – | – |
| NCc1cccc(-n2nc(C(F)(F)F)cc2C(=O)Nc2cccc(C(O)(CCC3CC3)c3ccccc3)c2)c1 (stereo in doubt; 10) | 1.2 | 56 | – | – | – | – | – | – |
| NCc1cccc(-n2nc(C(F)(F)F)cc2C(=O)Nc2cc(C(N)(CCC3CC3)c3ccccn3)ccc2F)c1 (stereo in doubt; 29) | – | – | 960 | 157 | 15.1 | – | – | – |
| NCc1cccc(-n2nc(C(F)(F)F)cc2C(=O)Nc2cc(C(O)(CCC3CC3)c3ccncc3)ccc2F)c1 (stereo in doubt; 25) | 1.1 | 7.7 | 95 | 42 | 2 | – | – | – |
| NCc1cccc(-n2nc(C(F)(F)F)cc2C(=O)Nc2cccc(C(O)(CCC3CC3)c3cccnc3)c2)c1 (stereo in doubt; 8) | 5.7 | 23 | – | – | – | – | – | – |
| NCc1cccc(-n2nc(C(F)(F)F)cc2C(=O)Nc2cccc(C(O)(CCC3CC3)c3ccncc3)c2)c1 (stereo in doubt; 9) | 4.7 | 17 | – | – | – | – | – | – |
| NCc1cccc(-n2nc(C(F)(F)F)cc2C(=O)Nc2cccc(C(O)(CCC3CC3)c3ccncc3)c2)c1 (stereo in doubt; 24) | 59 | 178 | – | – | – | – | – | – |
| NCc1cccc(-n2nc(C(F)(F)F)cc2C(=O)Nc2cc(C(O)(CCC3CC3)c3ccncc3)ccc2F)c1 (stereo in doubt; 26) | 180 | 165 | – | – | – | – | – | – |
| NCc1cccc(-n2nc(C(F)(F)F)cc2C(=O)Nc2cc(C(N)(CCC3CC3)c3cccc(C(N)=O)c3)ccc2F)c1 (stereo unspecified) | 1.3 | 6 | 306 | 17 | 9.4 | – | – | – |
| N#Cc1ccc(C(N)(CCC2CC2)c2ccc(F)c(NC(=O)c3cc(C(F)(F)F)nn3-c3cccc(CN)c3)c2)cc1 (stereo in doubt; 41) | – | – | 2290 | 303 | 40.1 | – | – | – |
| NCc1cccc(-n2nc(C(F)(F)F)cc2C(=O)Nc2cc(C(N)(CCC3CC3)c3ccc(C(N)=O)cc3)ccc2F)c1 (stereo unspecified) | 0.9 | 3.8 | – | – | – | – | – | – |
| NCc1cccc(-n2nc(C(F)(F)F)cc2C(=O)Nc2cccc(C(O)(CCC3CC3)c3ccncc3)c2)c1 (stereo in doubt; 23) | 1.3 | 7.6 | 11 | 7 | – | – | – | – |
| NCc1cccc(-n2nc(C(F)(F)F)cc2C(=O)Nc2cccc(C(O)(CCC3CC3)c3cccnc3)c2)c1 (stereo in doubt; 19) | 59 | 264 | – | – | – | – | – | – |
| NCc1cccc(-n2nc(C(F)(F)F)cc2C(=O)Nc2cccc(C(O)(CCC3CC3)c3ccccc3)c2)c1 (stereo in doubt; 6) | 14 | 191 | – | – | – | – | – | – |
| NCc1cccc(-n2nc(C(F)(F)F)cc2C(=O)Nc2cccc(C(CCC3CC3)c3ccccc3)c2)c1 (stereo unspecified) | 10.4 | 2030 | – | – | – | – | – | – |
| Cc1cc(C(N)(CCC2CC2)c2ccc(F)c(NC(=O)c3cc(C(F)(F)F)nn3-c3cccc(CN)c3)c2)ccn1 (stereo in doubt; 35) | 1.2 | 3 | 1560 | 390 | 24.5 | – | – | – |
| NCc1cccc(-n2nc(C(F)(F)F)cc2C(=O)Nc2cccc(C(O)(CCC3CC3)c3ccccc3)c2)c1 (stereo in doubt; 11) | 62 | 1190 | – | – | – | – | – | – |
| NCc1cccc(-n2nc(C(F)(F)F)cc2C(=O)Nc2cc(C(O)(CCC3CC3)c3cccnc3)ccc2F)c1 (stereo in doubt; 20) | – | – | 1440 | 383 | 13 | – | – | – |
| NCc1cccc(-n2nc(C(F)(F)F)cc2C(=O)Nc2cc(C(N)(CCC3CC3)c3cccnc3)ccc2F)c1 (stereo in doubt; 31) | – | – | 888 | 190 | 9.62 | – | – | – |
